Experimental data from ChEMBL document CHEMBL1130773, “Identification of a non peptidic RANTES antagonist” (Bioorg Med Chem Lett, 1998).
pIC50: −log10 of the molar value. Active and inactive are the calls of the source. The calls are words filed in the database; no cut-off is given here.

Tested on: not listed separately
Experiment: Inhibition of [125I]RANTES binding to THP-1 cell membranes rich in C-C chemokine receptor types 1
Design: species or system Homo sapiens
Settings: not given

Row | SMILES | pIC50
1 | CC(=O)c1ccc2c(c1)N(CCCN1CCC3(CC1)C(=O)NCN3c1ccccc1)c1ccccc1S2 | 5.52
2 | COC(=O)c1ccc2c(c1)N(CCCN1CCC3(CC1)C(=O)NCN3c1ccccc1)c1ccccc1S2 | 5.40
3 | CN(C)S(=O)(=O)c1ccc2c(c1)N(CCCN1CCC(c3ccccc3)CC1)c1ccccc1S2 | 5.35
4 | CN(C)S(=O)(=O)c1ccc2c(c1)N(CCCN1CCC(C3CCCCC3)CC1)c1ccccc1S2 | 5.70
5 | CN(CCCc1ccccc1)CCCN1c2ccccc2Sc2ccc(S(=O)(=O)N(C)C)cc21 | 5.40
6 | CN(C)C(=O)c1ccc2c(c1)N(CCCN1CCC3(CC1)C(=O)NCN3c1ccccc1)c1ccccc1S2 | 5.30
7 | CN(C)S(=O)(=O)c1ccc2c(c1)N(CCCN1CCC3(CC1)C(=O)NCN3c1ccccc1)c1ccccc1S2 | 5.52
8 | CN(C)S(=O)(=O)c1ccc2c(c1)N(CCCCN1CCC3(CC1)C(=O)NCN3c1ccccc1)c1ccccc1S2 | 5.00
9 | CN(C)S(=O)(=O)c1ccc2c(c1)N(CCCN1CCC(Cc3ccccc3)CC1)c1ccccc1S2 | 5.15
10 | O=C1NCN(c2ccccc2)C12CCN(CCCN1c3ccccc3Sc3ccc(Cl)cc31)CC2 | 5.15
11 | O=C1NCN(c2ccccc2)C12CCN(CCCN1c3ccccc3Sc3ccccc31)CC2 | 4.92
12 | N#Cc1ccc2c(c1)N(CCCN1CCC3(CC1)C(=O)NCN3c1ccccc1)c1ccccc1S2 | 5.22

Molecular target: C-C chemokine receptor type 2 (Homo sapiens) (UniProt P41597)
Sequence (P41597 whole entry, looked up): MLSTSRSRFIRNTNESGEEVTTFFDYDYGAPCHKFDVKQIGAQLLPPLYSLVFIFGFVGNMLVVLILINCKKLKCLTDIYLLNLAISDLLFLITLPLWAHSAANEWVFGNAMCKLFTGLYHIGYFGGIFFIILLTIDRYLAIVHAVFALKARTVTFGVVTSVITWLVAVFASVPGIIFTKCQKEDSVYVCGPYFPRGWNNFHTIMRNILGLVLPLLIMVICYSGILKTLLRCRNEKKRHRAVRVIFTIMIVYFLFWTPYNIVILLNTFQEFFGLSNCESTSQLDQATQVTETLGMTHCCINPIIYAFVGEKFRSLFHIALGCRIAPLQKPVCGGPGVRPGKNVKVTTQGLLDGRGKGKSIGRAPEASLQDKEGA
Experiment: Tested for inhibition of [125I]-MCP-1 receptor binding to THP-1 cell membranes at concentrations up to 30 uM; NI means no inhibition
Settings: not given

Row | SMILES | inhibition
13 | CN(C)S(=O)(=O)c1ccc2c(c1)N(CCCN1CCC3(CC1)C(=O)NCN3c1ccccc1)c1ccccc1S2 | inactive

Tested on: THP-1
Experiment: Compound was tested in vitro for inhibition of [125I]RANTES binding to THP-1 cell membranes rich in C-C chemokine receptor type 1
Settings: dose or concentration not given here

Row | SMILES | inhibition [%]
14 | CN(C)S(=O)(=O)c1ccc2c(c1)N(CCN1CCC3(CC1)C(=O)NCN3c1ccccc1)c1ccccc1S2 | < 20
15 | CN(C)S(=O)(=O)c1ccc2c(c1)N(CCCN1CCCCC1)c1ccccc1S2 | 38
